# Results taken from patent publication US20240325554A1, “METHODS FOR TREATING CANCER” (Bicycle Tx Limited, priority 2021, published 2024).
# Entries after “also recorded” stand apart in the source; their conditions may differ. Numbered stars: 1 amine (or outer) side, 2 acyl side, 3 side chain; on linkers, the order of the positions; unused ones are H or OH. Bridge positions count the residues as written; N and C are the ends. Square brackets hold non-standard residues; d marks the D form. I, II: the chains in the order shown. X2 = O=C(CCOCCOCCOCCN(CCOCCOCCOCCn1cc(CCC(=O)[*:2])nn1)CCOCCOCCOCCn1cc(CCC(=O)[*:3])nn1)[*:1]; TATA = O=C(CC[*:1])N1CN(C(=O)CC[*:2])CN(C(=O)CC[*:3])C1; X1 = CC(C)[C@H](N[*:1])C(=O)C[C@@H](CC(N)=O)C(=O)[*:2]; X3 = O=C(CC[*:1])N1CN(C(=O)CC[*:3])CN(C(=O)C[*:2])C1; d1Nal = N[C@H](Cc1cccc2ccccc12)C(=O)O; Hyp = O=C(O)[C@@H]1C[C@@H](O)CN1; hArg = N=C(N)NCCCC[C@H](N)C(=O)O; tBuAla = CC(C)(C)C[C@H](N)C(=O)O; Nle = CCCC[C@H](N)C(=O)O
# Assays:
# [1] = system: MC38 #13 (MC38 cells engineered to express Nectin-4) tumor tissue; experiment: transcriptional (Nanostring) analysis of MC38 #13 tumors, study with BT7480; type: in vivo, huCD137-C57B/6J mice; conditions: 5 mg/kg i.v. 0 h, 24 h
# Description: For the transcriptional and immunohistochemical (IHC) analyses, 6-8 week old female huCD137-C57B/6J mice (Biocytogen) mice were implanted subcutaneously with 1×10^6 MC38 #13 (MC38 cells engineered to express Nectin-4) cells. Mice were randomized into treatment groups when average tumor volumes reached around 255 mm^3 to receive vehicle, BT7480 (BCY00011863), non-binder BCY control BCY00012797 (BCY12797) or αCD137 antibody (urelumab analogue). BT7480 and its non-binding control were dosed intravenously at 5 mg/kg (in 25 mM histidine HCl, 10% sucrose, pH7; Vehicle) at 0 h and 24 h and urelumab analogue was dosed intraperitoneally at 2 mg/kg in PBS BIW (0 h, 72 h) dose and schedule. Tumors from BT7480-treated mice were harvested at 24 h (after the 0 h dose), 48 h (24 h after the last of 0 h and 24 h dose), 96 h (72 h after the last of 0 h and 24 h dose) and 144 h (120 h after the last of 0 h and 24 h dose). Tumors from αCD137-treated mice were harvested at 144 h after treatment initiation. Tumors from vehicle treated mice were harvested 24 h after the 0 h dose and at 144 h (120 h after the last of 0 h and 24 h dose). RNA was isolated from tumor tissues using RNAeasy kit (Qiagen) and transcriptional analysis was performed using nCounter Mouse PanCancer IO 360 panel (Nanostring) from 100 ng RNA/tumor. Data were analyzed using the nSolver Analysis Software with advanced analysis probe set ns_mm_io_360_v1.0 (Nanostring).
# CD137 [2] = biological target: T1, CD137 (Homo sapiens, UniProt Q07011); experiment: CD137 activation; type: cell-based
# T1 sequence (Q07011 24-255): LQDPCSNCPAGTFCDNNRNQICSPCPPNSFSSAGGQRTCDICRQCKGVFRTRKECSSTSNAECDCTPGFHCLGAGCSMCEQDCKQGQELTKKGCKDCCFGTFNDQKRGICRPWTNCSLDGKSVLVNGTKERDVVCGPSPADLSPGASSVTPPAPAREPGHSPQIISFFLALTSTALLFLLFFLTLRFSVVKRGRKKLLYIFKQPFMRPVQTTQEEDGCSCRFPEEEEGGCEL
# [3] = system: MC38 #13 cells (MC38 cells engineered to overexpress Nectin-4); experiment: efficacy study BT7480 with anti-PD-1 and anti-Ctla-4, MC38 #13 tumor growth and survival; type: in vivo, C57BL/6J-huCD137 mice; conditions: i.p. BIW for 2 weeks, 1 mg/kg BT7480, 5 mg/kg antibodies, by day 33
# Description: For tumor growth analysis, 6-8 week old female C57BL/6J-huCD137− mice (Biocytogen) were implanted subcutaneously with 1×10+e6 MC38 #13 cells (MC38 cells engineered to overexpress Nectin-4). Mice were randomized into treatment groups when average tumor volumes reached around 100 mm^3 and were treated intraperitoneally with vehicle (25 mM histidine, 10% sucrose, pH7), 1 mg/kg BT7480, 5 mg/kg anti-PD-1 (RMP 1-14), 5 mg/kg anti-Ctla-4 (9H10) or BT7480/anti-PD-1 and BT7480/anti-Ctla-4 combinations. Treatments were given twice weekly (BIW) for 2 weeks, and tumor growth was monitored by caliper measurements until day 33 after treatment initiation. Animals with >2000 mm^3 tumors were sacrificed as they had reached the Humane Endpoint.
# CD137 [4] = biological target: T1, CD137; experiment: IL-2 and IFN-γ cytokine secretion; type: cell-based
# MC38 tumor [5] = experiment: MC38 tumor model in mice (BCY13272); type: in vivo
# MC38 tumor tissue [6] = experiment: transcriptional (Nanostring) profiling of MC38 tumors, study with BT7455; type: in vivo, huCD137-C57B/6J mice
# Description: For the transcriptional profiling analyses of the effects of BT7455 in the immune tumor microenvironment, 6-8 week old female huCD137-C57B/6J mice (Biocytogen) mice were implanted subcutaneously with 1×10+E6 MC38 cells. Mice were randomized into treatment groups when average tumor volumes reached around 350 mm^3 to receive vehicle, BT7455, αCD137 antibody (urelumab analogue) or αPD-1 antibody. BT7455 was dosed intravenously at 8 mg/kg (in 25 mM histidine HCl, 10% sucrose, pH7; Vehicle) at 0 h and 24 h and urelumab analogue and αPD-1 antibody were dosed intraperitoneally at 2 mg/kg (urelumab analogue) or 10 mg/kg (αPD-1 antibody) in PBS at 0 h. Tumors from vehicle, BT7455, urelumab analogue and αPD-1 antibody-treated mice were harvested at 24 h, 48 h and 144 h after treatment initiation. RNA was isolated from tumor tissues using RNAeasy kit (Qiagen) and transcriptional analysis was performed using nCounter Mouse PanCancer IO 360 panel (Nanostring) from 100 ng RNA/tumor. Data were analyzed using the nSolver Analysis Software with advanced analysis probe set ns_mm_io_360 v1.0 (Nanostring).
# MC38 tumor [7] = experiment: efficacy study BCY12491 and Pembrolizumab combination, MC38 tumor growth; type: in vivo, huCD137/huPD-1-C57B/6J mice
# Description: For tumor growth analysis, 6-8 week old female huCD137/huPD-1-C57B/6J mice (Biocytogen) mice were implanted subcutaneously with 1×10^6 MC38 cells. Mice were randomized into treatment groups when average tumor volumes reached around 92 mm^3 and were treated intravenously with vehicle (25 mM histidine, 10% sucrose, pH7), 5 mg/kg BCY12491 (0, 24 h) or intraperitoneally with 3 mg/kg anti-PD-1 antibody Pembrolizumab or a combination of BCY12491 and Pembrolizumab. Combination treatments were given with three different dosing schedules: BCY12491 and Pembrolizumab treatment initiating at the same time on day 0, BCY12491 treatment initiating on […] and Pembrolizumab treatment initiating on day 5, or Pembrolizumab treatment initiating of day 0 and BCY12491 treatment initiating on day 5. Treatments were given weekly for four doses and tumor growth was monitored by caliper measurements.
# MC38 tumor tissue [8] = experiment: transcriptional (Nanostring) analysis of MC38 tumors, profiling study with BCY12491; type: in vivo, huCD137-C57B/6J mice; conditions: Q3D for three doses, Day 6, vs vehicle, 15 mg/kg i.v. peptides, 2 mg/kg i.p. antibody
# Description: (§1) For the transcriptional and immunohistochemical (IHC) analyses, 6-8 week old female huCD137-C57B/6J mice (Biocytogen) mice were implanted subcutaneously with 1×10^6 MC38 cells. Mice were randomized into treatment groups when average tumor volumes reached around 240 mm^3 and were treated intravenously with vehicle (25 mM histidine, 10% sucrose, pH7), 15 mg/kg BCY12491, 15 mg/kg BCY13626 (non-binding control) or intraperitoneally with 2 mg/kg anti-CD137 antibody urelumab. Treatments were given Q3D for three doses, tumor growth was monitored by caliper measurements and tumor tissues were harvested 1 hour after the last dose on Day 6. Part of the tumor tissue was used for RNA isolation for transcriptional analysis and a part of the tumor tissue was used for formalin-fixed paraffin embedded (FFPE) sample preparation for IHC analysis. RNA was isolated from tumor tissues using RNAeasy kit (Qiagen) and transcriptional analysis was performed using nCounter Mouse PanCancer IO 360 panel (Nanostring) from 100 ng RNA/tumor. Data were analyzed using the nSolver Analysis Software with advanced analysis probe set ns_mm_io_360_v1.0 (Nanostring). CD8+ tumor infiltrating cells were stained in FFPE tissue sections using anti-mouse CD8 antibody (Abcam, #ab217344) and Ventana Discovery OmniMap anti Rabbit-HRP Kit (Ventana #760 4310).
# MC38 tumor tissue [9] = experiment: IHC analysis for CD8+ cells in MC38 tumor tissue, study with BCY12491; type: in vivo, huCD137-C57B/6J mice; conditions: Q3D for three doses, Day 6, vs vehicle or non-binder
# Description: as §1
molecule,measurement,setting,value
CCCC[C@@H]1NC(=O)[C@H](Cc2ccc(O)cc2)NC(=O)[C@@H]2CCCN2C(=O)[C@H](CC(=O)O)NC(=O)[C@H](C)NC(=O)[C@H](Cc2ccccc2)NC(=O)[C@@H]2CSCCC(=O)N3CN(CN(C3)C(=O)CCSC[C@@H](C(=O)N[C@@H](C)C(N)=O)NC1=O)C(=O)CCSC[C@H](NC(C)=O)C(=O)N[C@@H](CC(C)(C)C)C(=O)N1CCC[C@H]1C(=O)N[C@@H](CCC(=O)O)C(=O)N[C@H](CCCCNC(=O)CCc1cn(CCOCCOCCOCCN(CCOCCOCCOCCC(=O)N[C@H]3CSCCC(=O)N4CN5CN(C4)C(=O)CCSC[C@H](NC(=O)[C@@H](CC(=O)O)NC(=O)[C@H](Cc4cccc6ccccc46)NC(=O)[C@@H]4CCCN4C3=O)C(=O)N[C@@H](CCSC)C(=O)N[C@@H](CCCCNC(=N)N)C(=O)N[C@@H](CC(=O)O)C(=O)N[C@@H](Cc3c[nH]c4ccccc34)C(=O)N[C@@H](CO)C(=O)N[C@@H]([C@@H](C)O)C(=O)N3CCC[C@H]3C(=O)N3C[C@H](O)C[C@H]3C(=O)N[C@@H](Cc3c[nH]c4ccccc34)C(=O)N[C@H](C(N)=O)CSCCC5=O)CCOCCOCCOCCn3cc(CCC(=O)NCCCC[C@H]4NC(=O)[C@H](CCC(=O)O)NC(=O)[C@@H]5CCCN5C(=O)[C@H](CC(C)(C)C)NC(=O)[C@@H](NC(C)=O)CSCCC(=O)N5CN6CN(C5)C(=O)CCSC[C@H](NC(=O)[C@H](Cc5ccc(O)cc5)NC(=O)[C@@H]5CCCN5C4=O)C(=O)N[C@@H](Cc4ccccc4)C(=O)N[C@@H](C)C(=O)N[C@@H](CC(=O)O)C(=O)N4CCC[C@H]4C(=O)N[C@@H](Cc4ccc(O)cc4)C(=O)N[C@@H](CCCC)C(=O)N[C@H](C(=O)N[C@@H](C)C(N)=O)CSCCC6=O)nn3)nn1)C(=O)N1CCC[C@H]1C(=O)N[C@@H](Cc1ccc(O)cc1)C(=O)N2 [BT7480],"mRNA for T cell chemotactic chemokines/cytokines such as Ccl1, Ccl17 and Ccl24",[1],significant early (24 hour timepoint) increase
same,"mRNAs for immune checkpoints (Ctla4, Pdcd1, Cd274, Lag3, Havcr2, Pdcd1lg2, Tigit)",[1]; 5 mg/kg,increase in several immune checkpoint mRNAs; also recorded: trend to increase or significant increase
same,cytotoxic cell score in tumor tissue,[1]; 144 h vs vehicle at 144 h,significantly increased
same,Macrophage Cell Score in tumor tissue,[1]; by 48 h vs 24 h vehicle readout,significant increase
same,CD137 activation,CD137 [2],strong CD137 activation
same,rate of complete responses (CRs),[3],0/8
same,IL-2 and IFN-γ cytokine secretion,CD137 [4],robust IL-2 and IFN-γ cytokine secretion
"I: A[hArg]DC[Hyp]L[X1]PLCLEP[d1Nal]WTC-NH2 / II: Ac-C[tBuAla]PE[dK]PYCFADPY[Nle]CA-NH2 / III: Ac-C[tBuAla]PE[dK]PYCFADPY[Nle]CA-NH2 (linker I:4-I:10-I:17, II:1-II:8-II:15 via TATA; linker I:N-II:5-III:5 via X2; linker III:1-III:8-III:15 via X3) [BT7455]",antitumor effect,MC38 tumor [5],significant antitumor effect
same,"mRNAs for immune checkpoints (Ctla4, Pdcd1, Cd274, Lag3, Havcr2, Pdcd1lg2, Tigit)","MC38 tumor tissue [6]; 8 mg/kg i.v. 0 h, 24 h",increase in several immune checkpoint mRNAs; also recorded: significant increase
same,"mRNA for T cell chemotactic chemokines/cytokines such as Ccl1, Ccl17 and Ccl24","MC38 tumor tissue [6]; 8 mg/kg i.v., 24-48 hour timepoint",significant early (24-48 hour timepoint) increase
same,cytotoxic cell score in tumor tissue,"MC38 tumor tissue [6]; 8 mg/kg i.v., vs vehicle or anti-PD-1 or anti-CD137 treated mice",significant increase
same,modulation of gene sets (signature scores),"MC38 tumor tissue [6]; 48 h after treatment initiation, 8 mg/kg BT7455, 10 mg/kg anti-PD-1, 2 mg/kg urelumab analogue",significant early (48 hours) modulation of several gene sets
Pembrolizumab: anti-PD-1 antibody Pembrolizumab,anti-tumor activity compared to vehicle control,"MC38 tumor [7]; 5 mg/kg BCY12491 QW (0, 24 h), 3 mg/kg Pembrolizumab QW, combination both from day 0, D18, p<0.0001",significantly affected the tumor growth; also recorded: significant anti-tumor activity
same,complete responses,"MC38 tumor [7]; monotherapy treatment cohorts, 5 mg/kg BCY12491 (0, 24 h) or 3 mg/kg Pembrolizumab weekly",3/10
anti-CD137 antibody: anti-CD137 antibody urelumab,T cell score in tumor tissue,MC38 tumor tissue [8],increased significantly
same,cytotoxic cell score in tumor tissue,MC38 tumor tissue [8],increased significantly
same,infiltration of CD8+ cells in tumors (IHC),MC38 tumor tissue [9],Some increase of CD8+ cell infiltration
